Assay [1] concerns the target human ALK3 (Homo sapiens (Human), UniProt P36894). Description: ALK3 enzyme inhibitory effect (33P-ATP kinase assay, Reaction Biology). The note with it: ALK3, test compound 300 nM; read-out: Inhibition rate at 300 nM. The assay is classed as biochemical. An excerpt:
(§1) ALK Enzyme Inhibitory Effect
(§2) Evaluation conditions were described in the following web pages. http://www.reactionbiology.corrilwebapps/site/Kinase_Assay_Protocol.aspx http://www.reactionbiology.corrilwebapps/site/KinaseDetail.aspx?page=Kinases&id=1

Assay [2] has as its system BMP signal in MDA-231-D-BREFluc/Rluc cells. Description: BMP signal inhibitory effect (AlphaScreen SureFire SMAD1 p-Ser463/465, BMP-6 stimulation). The class given is cell-based. Particulars: BMP-6 stimulated MDA-231-D-BREFluc/Rluc cells, phospho-SMAD1 AlphaScreen; read-out: IC50. A digest of the protocol:
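MDA-231-D-BREFluc/Rluc cells were pretreated with compound for 2 h at 37° C, then stimulated with BMP-6 for 30 min. SMAD1 p-Ser463/465 in lysates was measured by AlphaScreen SureFire.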

The target in assay [3] is human ALK6 (Homo sapiens (Human), UniProt O00238). Nature of the assay: ALK6 enzyme inhibitory effect (33P-ATP kinase assay, Reaction Biology). The assay is classed as biochemical. The note with it: ALK6, test compound 300 nM; read-out: Inhibition rate at 300 nM.
Description: as §1, §2

Assay [4] addresses human ALK2 (Homo sapiens (Human), UniProt Q04771). Description: ALK2 enzyme inhibitory effect (33P-ATP kinase assay, Reaction Biology). The class given is biochemical. Particulars: ALK2, 10 μM ATP, 20 μM casein.
Description: as §1, §2

human ALK2, sequence (Q04771 21-509): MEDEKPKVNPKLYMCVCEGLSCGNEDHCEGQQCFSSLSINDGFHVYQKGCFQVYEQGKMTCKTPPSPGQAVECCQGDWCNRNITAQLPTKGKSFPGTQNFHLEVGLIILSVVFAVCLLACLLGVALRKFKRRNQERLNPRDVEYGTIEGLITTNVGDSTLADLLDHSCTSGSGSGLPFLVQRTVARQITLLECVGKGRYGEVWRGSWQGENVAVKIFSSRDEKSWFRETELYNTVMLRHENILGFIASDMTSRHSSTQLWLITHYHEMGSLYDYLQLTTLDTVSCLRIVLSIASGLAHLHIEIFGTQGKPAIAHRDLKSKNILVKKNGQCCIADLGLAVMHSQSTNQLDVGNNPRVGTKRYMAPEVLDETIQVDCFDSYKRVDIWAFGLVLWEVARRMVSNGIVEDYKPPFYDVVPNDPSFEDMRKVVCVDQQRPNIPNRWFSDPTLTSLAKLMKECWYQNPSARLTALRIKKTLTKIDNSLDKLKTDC
human ALK6, sequence (O00238 14-502): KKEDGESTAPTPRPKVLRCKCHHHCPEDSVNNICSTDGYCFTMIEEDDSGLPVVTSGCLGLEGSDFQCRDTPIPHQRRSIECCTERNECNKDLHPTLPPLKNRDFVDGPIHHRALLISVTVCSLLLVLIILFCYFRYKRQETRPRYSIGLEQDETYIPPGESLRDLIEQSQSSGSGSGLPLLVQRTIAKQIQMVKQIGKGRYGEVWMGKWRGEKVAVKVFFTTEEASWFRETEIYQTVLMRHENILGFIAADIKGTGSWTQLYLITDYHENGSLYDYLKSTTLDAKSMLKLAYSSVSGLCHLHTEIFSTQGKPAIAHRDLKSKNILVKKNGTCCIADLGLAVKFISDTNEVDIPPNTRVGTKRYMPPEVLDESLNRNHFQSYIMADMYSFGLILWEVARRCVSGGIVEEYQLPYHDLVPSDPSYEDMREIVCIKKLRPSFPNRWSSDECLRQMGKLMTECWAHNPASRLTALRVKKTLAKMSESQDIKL
human ALK3, sequence (P36894 24-532): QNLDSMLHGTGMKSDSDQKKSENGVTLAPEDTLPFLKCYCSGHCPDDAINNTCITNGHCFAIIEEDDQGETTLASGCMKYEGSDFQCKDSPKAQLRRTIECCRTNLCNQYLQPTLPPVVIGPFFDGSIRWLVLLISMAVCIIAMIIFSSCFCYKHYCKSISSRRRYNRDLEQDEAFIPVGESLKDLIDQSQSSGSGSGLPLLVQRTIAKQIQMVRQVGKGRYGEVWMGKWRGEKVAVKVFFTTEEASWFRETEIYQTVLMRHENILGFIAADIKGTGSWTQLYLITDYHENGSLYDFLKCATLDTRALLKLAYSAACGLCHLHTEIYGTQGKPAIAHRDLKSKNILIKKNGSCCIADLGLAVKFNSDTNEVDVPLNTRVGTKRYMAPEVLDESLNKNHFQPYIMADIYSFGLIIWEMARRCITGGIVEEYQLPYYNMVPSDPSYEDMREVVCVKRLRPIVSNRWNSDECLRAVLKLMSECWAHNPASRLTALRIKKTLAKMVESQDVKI

For `CCn1cc(-c2ccnc(Nc3ccc4c(c3)CCNC4)n2)c(-c2cccnc2)n1` [Example 168, N-(4-(1-ethyl-3-(pyridin-3-yl)-1H-pyrazol-4-yl)pyrimidin-2-yl)-1,2,3,4-tetrahydroisoquinolin-6-amine], the inhibition at 0.3 µM in assay [1] was found to be 67.3%; in assay [3], 93.9%. The IC50 in assay [2] was 1.5 nM; in assay [4], 43 nM.

As to `CCn1cc(-c2ccnc(Nc3ccc4c(c3)CNCC4)n2)c(-c2cccnc2)n1` [Example 169, N-(4-(1-ethyl-3-(pyridin-3-yl)-1H-pyrazol-4-yl)pyrimidin-2-yl)-1,2,3,4-tetrahydroisoquinolin-7-amine], the inhibition at 0.3 µM in assay [1] was 66.6%; in assay [3], 96.5%. Besides, the IC50 in assay [2] was 1.6 nM; in assay [4], 18 nM.

As to `CCn1cc(-c2ccnc(Nc3ccc4c(c3)CCNCC4)n2)c(-c2cccnc2)n1` [Example 171, N-(4-(1-Ethyl-3-(pyridin-3-yl)-1H-pyrazol-4-yl)pyrimidin-2-yl)-2,3,4,5-tetrahydro-1H-benzo [d] azepin-7-amine], the inhibition at 0.3 µM in assay [1] came out at 67.1%; in assay [3], 98.3%. The IC50 in assay [2] was 1.3 nM; in assay [4] it was 17 nM.

With `CCn1cc(-c2ccnc(Nc3ccc4c(c3)CCN(C(=O)CO)C4)n2)c(-c2cccnc2)n1` [Example 175, 1-(6-((4-(1-Ethyl-3-(pyridin-3-yl)-1H-pyrazol-4-yl)pyrimidin-2-yl)amino)-3,4-dihydroisoquinolin-2(1H)-yl)-2-hydroxyethan-1-one], the inhibition at 0.3 µM in assay [1] is 74.6%; in assay [3], 93.6%. In addition, the IC50 in assay [2] was determined as 10.8 nM; in assay [4] it was 46.8 nM.

Turning to `CCn1cc(-c2ccnc(Nc3ccc(N4CCC(C)(N)CC4)cc3)n2)c(-c2cccnc2)n1` [Example 176, N-(4-(4-amino-4-methylpiperidin-1-yl)phenyl)-4-(1-ethyl-3-(pyridin-3-yl)-1H-pyrazol-4-yl)pyrimidin-2-amine], the inhibition at 0.3 µM in assay [1] turned out to be 62.4%; in assay [3], 88.5%. Further, the IC50 came out at 7.3 nM in assay [2] and 66 nM in assay [4].

For the compound `CCn1cc(-c2ccnc(Nc3ccc4c(c3)CN(CCO)CC4)n2)c(-c2cccnc2)n1` [Example 179, 2-(7-((4-(1-ethyl-3-(pyridin-3-yl)-1H-pyrazol-4-yl)pyrimidin-2-yl)amino)-3,4-dihydroisoquinolin-2(1H)-yl)ethan-1-ol], the inhibition at 0.3 µM in assay [1] stood at 62.4%; in assay [3], 94.3%. Further, the figures for the IC50 in assay [2] and in assay [4] were 5.7 nM and 31 nM, respectively.

Source of the values: patent publication US10954216B2, “BMP-signal-inhibiting compound” (RIKEN, priority 2016, dated 2021).
